Where a name gives a salt, the structure may show the parent alone.
molecular target: human GPR40 (Homo sapiens, UniProt O14842); experiment: FDSS-based intracellular calcium assay (Human GRP40 in vitro assay); type: cell-based; set-up: 3xFLAG; expressed in transfected cells; details: cells expressing GPR40, intracellular Ca2+ response, FDSS reader; read-out: hGPR40 EC50
Protocol: To conduct the fluorescent imaging plate reader (FLIPR)-based calcium flux assay to measure intracellular Ca^2+ response, cells expressing GPR40 are plated on 384 well plates (BD BIOCOAT® #356697) at a density of 20,000 cells/20 μL medium per well in phenol red and serum-free DMEM (GIBCO® #21063-029) and incubated overnight. Using BD kit #s 80500-310 or -301, the cells are incubated with 20 μL per well of Hank's buffered salt solution with 1.7 mM probenecid and Fluo-3 at 37° C. for 30 min. Compounds are dissolved in DMSO and diluted to desired concentrations with assay buffer and added to the cells as 3× solution (20 μL per well). Run fluorescence/luminescence reader FDSS (Hamamatsu) to read intracellular Ca^2+ response.

Chain of human GPR40 (O14842 whole entry): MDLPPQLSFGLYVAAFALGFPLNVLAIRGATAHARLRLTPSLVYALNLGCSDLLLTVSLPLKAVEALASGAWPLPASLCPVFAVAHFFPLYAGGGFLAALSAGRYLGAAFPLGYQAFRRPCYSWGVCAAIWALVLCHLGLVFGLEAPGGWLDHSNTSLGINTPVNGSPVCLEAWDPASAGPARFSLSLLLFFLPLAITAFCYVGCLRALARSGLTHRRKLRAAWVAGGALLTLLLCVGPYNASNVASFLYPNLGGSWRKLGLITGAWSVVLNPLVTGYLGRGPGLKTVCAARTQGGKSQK

| EC50 | SMILES |
| --- | --- |
| 340 nM | COc1ccc(F)c(N2CCC(Oc3ccc(N4C[C@H](OC)C[C@@H]4CC(=O)O)cc3)C(C)C2)c1 (single isomer, unassigned) [Example 17, Isomer 1] |
| 64 nM | COc1ccc(F)c(N2CCC(Oc3ccc(N4C[C@H](OC)C[C@@H]4CC(=O)O)cc3)C(C)C2)c1 (single isomer, unassigned) [Example 17, Isomer 2] |
| 440 nM | COc1cc(N2CCC(Oc3ccc(N4C[C@H](C(F)(F)F)C[C@@H]4CC(=O)O)cc3)C(C)C2)c(Cl)cn1 (single isomer, unassigned) [Example 27, Isomer 1, HCl] |
| 130 nM | COc1cc(N2CCC(Oc3ccc(N4C[C@H](C(F)(F)F)C[C@@H]4CC(=O)O)cc3)C(C)C2)c(Cl)cn1 (single isomer, unassigned) [Example 27, Isomer 2, HCl] |
| 210 nM | COc1cc(N2CCC(Oc3ccc(N4C[C@H](C(F)(F)F)C[C@@H]4CC(=O)O)cc3)C(F)C2)c(Cl)cn1 (single isomer, unassigned) [Example 28, Isomer 2, HCl] |
| 240 nM | COc1ccc(C)c(N2CCC(Oc3ccc(N4C[C@H](OC)C[C@@H]4CC(=O)O)cc3)C(C)C2)c1 (single isomer, unassigned) [Example 64, Isomer 1] |
| 120 nM | COc1ccc(C)c(N2CCC(Oc3ccc(N4C[C@H](OC)C[C@@H]4CC(=O)O)cc3)C(C)C2)c1 (single isomer, unassigned) [Example 64, Isomer 2] |
| 4800 nM | COc1cc(N2CCC(Oc3ccc(N4C[C@H](OC)C[C@@H]4CC(=O)O)cc3)C(C)C2)c(F)cn1 (single isomer, unassigned) [Example 83, Isomer 1] |
| 370 nM | COc1cc(N2CCC(Oc3ccc(N4C[C@H](OC)C[C@@H]4CC(=O)O)cc3)C(C)C2)c(F)cn1 (single isomer, unassigned) [Example 83, Isomer 2] |
| 730 nM | COc1cc(N2CCC(Oc3ccc(N4C[C@H](OC)C[C@@H]4CC(=O)O)cc3)C(C)C2)c(Cl)cn1 (single isomer, unassigned) [Example 84, Isomer 1, TFA] |
| 180 nM | COc1cc(N2CCC(Oc3ccc(N4C[C@H](OC)C[C@@H]4CC(=O)O)cc3)C(C)C2)c(Cl)cn1 (single isomer, unassigned) [Example 84, Isomer 2, TFA] |
| 410 nM | COc1cc(N2CCC(Oc3ccc(N4C[C@H](OC)CC4CC(=O)O)c(F)c3F)C(C)C2)c(Cl)cn1 (single isomer, unassigned) [Example 141, Isomer 1] |
| 5600 nM | COc1cc(N2CCC(Oc3ccc(N4C[C@H](OC)CC4CC(=O)O)c(F)c3F)C(C)C2)c(Cl)cn1 (single isomer, unassigned) [Example 141, Isomer 2] |
| 4700 nM | COc1cc(N2CCC(Oc3ccc(N4C[C@H](OC)CC4CC(=O)O)c(F)c3F)C(C)C2)c(Cl)cn1 (single isomer, unassigned) [Example 141, Isomer 3] |
| 170 nM | COc1cc(N2CCC(Oc3ccc(N4C[C@H](OC)[C@@H](F)[C@@H]4CC(=O)O)cc3)C(C)C2)c(Cl)cn1 (single isomer, unassigned) [Example 147, Isomer 1, HCl] |
| 1800 nM | COCC1CN(c2cc(OC)ncc2Cl)CCC1Oc1ccc(N2C[C@H](C(F)(F)F)C[C@@H]2CC(=O)O)cc1 (single isomer, unassigned) [Example 172, Isomer 1, TFA] |
| 460 nM | COCC1CN(c2cc(OC)ncc2Cl)CCC1Oc1ccc(N2C[C@H](C(F)(F)F)C[C@@H]2CC(=O)O)cc1 (single isomer, unassigned) [Example 172, Isomer 2, TFA] |

The next lines start with the compound.

| SMILES | EC50 |
| --- | --- |
| COc1ccc(F)c(N2CCC(Oc3ccc(N4C[C@H](C(F)(F)F)C[C@@H]4CC(=O)O)cc3)C2)c1 (single isomer, unassigned) [Example 12, Isomer 1, HCl] | 2800 nM |
| COc1ccc(F)c(N2CCC(Oc3ccc(N4C[C@H](C(F)(F)F)C[C@@H]4CC(=O)O)cc3)C2)c1 (single isomer, unassigned) [Example 12, Isomer 2, HCl] | 5400 nM |
| COc1ccc(F)c(N2CCC(Oc3ccc(N4C[C@H](OC)C[C@@H]4CC(=O)O)cc3)CC2C)c1 (single isomer, unassigned) [Example 13, Isomer 1, HCl] | 710 nM |
| COc1ccc(F)c(N2CCC(Oc3ccc(N4C[C@H](OC)C[C@@H]4CC(=O)O)cc3)CC2C)c1 (single isomer, unassigned) [Example 13, Isomer 2, HCl] | 160 nM |
| COc1ccc(F)c(N2CCC(Oc3ccc(N4CC(C(F)(F)F)C(C)C4CC(=O)O)cc3)CC2)c1 (single isomer, unassigned) [Example 26, Isomer 2, 2-((2,3-trans,3,4-trans)-1-(4-((1-(2-Fluoro-5-methoxyphenyl)piperidin-4-yl)oxy)phenyl)-3-methyl-4-(trifluoromethyl)pyrrolidin-2-yl)acetic acid, HCl] | 8400 nM |
| COc1cc(N2CCC(Oc3ccc(N4C[C@H](C(F)(F)F)C[C@@H]4CC(=O)O)cc3)C(F)C2)c(Cl)cn1 (single isomer, unassigned) [Example 28, Isomer 1, HCl] | 330 nM |
| CCOc1ccc(F)c(N2CCC(Oc3ccc(N4C[C@H](C(F)(F)F)C[C@@H]4CC(=O)O)cc3)C(CC)C2)c1 (single isomer, unassigned) [Example 33, Isomer 1, HCl] | 1900 nM |
| CCOc1ccc(F)c(N2CCC(Oc3ccc(N4C[C@H](C(F)(F)F)C[C@@H]4CC(=O)O)cc3)C(CC)C2)c1 (single isomer, unassigned) [Example 33, Isomer 2, HCl] | 430 nM |
| CCOc1ccc(F)c(N2CCC(Oc3ccc(N4C[C@H](C(F)(F)F)C[C@@H]4CC(=O)O)cc3)C(CC(C)C)C2)c1 (single isomer, unassigned) [Example 35, Isomer 1, HCl] | 1800 nM |
| CCOc1ccc(F)c(N2CCC(Oc3ccc(N4C[C@H](C(F)(F)F)C[C@@H]4CC(=O)O)cc3)C(Cc3ccccc3)C2)c1 (single isomer, unassigned) [Example 36, Isomer 1, HCl] | 6000 nM |
| CCOc1ccc(F)c(N2CCC(Oc3ccc(N4C[C@H](C(F)(F)F)C[C@@H]4CC(=O)O)cc3)C(Cc3ccccc3)C2)c1 (single isomer, unassigned) [Example 36, Isomer 2, HCl] | 740 nM |
| CCOc1ccc(F)c(N2CCC(Oc3ccc(N4C[C@H](C(F)(F)F)C[C@@H]4CC(=O)O)cc3)C(C)C2C)c1 (single isomer, unassigned) [Example 44, Isomer 1, HCl] | 500 nM |
| CCOc1ccc(F)c(N2CCC(Oc3ccc(N4C[C@H](C(F)(F)F)C[C@@H]4CC(=O)O)cc3)C(C)C2C)c1 (single isomer, unassigned) [Example 44, Isomer 2, HCl] | 505 nM |
| COc1ccc(F)c(N2CCC(Oc3ccc(N4CCCC4CC(=O)O)cc3)CC2)c1 (single isomer, unassigned) [Example 48, Isomer 1, 2-(1-(4-((1-(2-Fluoro-5-methoxyphenyl)piperidin-4-yl)oxy)phenyl)pyrrolidin-2-yl)acetic acid] | 4100 nM |
| COc1ccc(F)c(N2CCC(Oc3ccc(N4CC(F)(F)C[C@@H]4CC(=O)O)cc3)C(C)C2)c1 (single isomer, unassigned) [Example 53, Isomer 1, HCl] | 410 nM |
| COc1ccc(C2CCCC2(C)C)c(N2CCC(Oc3ccc(N4C[C@H](OC)C[C@@H]4CC(=O)O)cc3)CC2)c1 (single isomer, unassigned) [Example 65, Isomer 2] | 120 nM |
| COc1cc(N2CCC(Oc3ccc(N4C[C@H](OC)[C@@H](C)[C@@H]4CC(=O)O)cn3)C(C)C2)c(C2CCCC2(C)C)cn1 (single isomer, unassigned) [Example 150, Isomer 1, HCl] | 320 nM |
| COc1cc(N2CCC(Oc3ccc(N4C[C@H](OC)[C@@H](C)[C@@H]4CC(=O)O)cn3)C(C)C2)c(C2CCCC2(C)C)cn1 (single isomer, unassigned) [Example 150, Isomer 2, HCl] | 110 nM |
| COc1cc(N2CCC(Oc3ccc(N4C[C@H](OC)[C@@H](C)[C@@H]4CC(=O)O)cn3)CC2)c(C2CCCC2(C)C)cn1 (single isomer, unassigned) [Example 151, Isomer 2, HCl] | 140 nM |
| COc1cc(N2CCC(Oc3ccc(N4C[C@H](OC)[C@@H](C)[C@@H]4CC(=O)O)cc3)C(C)C2)c(F)cc1F (single isomer, unassigned) [Example 169, Isomer 1] | 3500 nM |
| COc1cc(N2CCC(Oc3ccc(N4C[C@H](OC)[C@@H](C)[C@@H]4CC(=O)O)cc3)C(C)C2)c(F)cc1F (single isomer, unassigned) [Example 169, Isomer 2] | 450 nM |
| CCO[C@@H]1C[C@H](CC(=O)O)N(c2ccc(OC3CCN(c4cc(OC)ccc4F)CC3)cc2)C1 [Example 2, 2-((2R,4R)-4-Ethoxy-1-(4-((1-(2-fluoro-5-methoxyphenyl)piperidin-4-yl)oxy)phenyl)pyrrolidin-2-yl)acetic acid, HCl] | 120 nM |
| COc1ccc(F)c(N2CCC(Oc3ccc(N4C[C@H](c5ccccc5)C[C@@H]4CC(=O)O)cc3)CC2)c1 [Example 3, 2-((2R,4S)-1-(4-((1-(2-Fluoro-5-methoxyphenyl)piperidin-4-yl)oxy)phenyl)-4-phenylpyrrolidin-2-yl)acetic acid, HCl] | 210 nM |
| COc1ccc(F)c(N2CCC(Oc3ccc(N4CC(F)(F)C[C@@H]4CC(=O)O)cc3)CC2)c1 [Example 5, (S)-2-(4,4-Difluoro-1-(4-((1-(2-fluoro-5-methoxyphenyl)piperidin-4-yl)oxy)phenyl)pyrrolidin-2-yl)acetic acid, TFA] | 66 nM |
